Laboratory results reported in ChEMBL document CHEMBL5137118, “Zamamiphidins B and C, Manzamine-Related Alkaloids from an Amphimedon sp. Marine Sponge Collected in Okinawa” (J Nat Prod, 2022).

Legend:
L1210 = assay: Cytotoxicity against mouse L1210 cells assessed as inhibition of cell growth; format: functional, cell-based
Acetylcholinesterase = Acetylcholinesterase (Electrophorus electricus, UniProt O42275); assay: Inhibition of electric eel AChE using acetylthiocholine iodide as substrate preincubated for 30 mins followed by substrate addition and measured after 5 mins by DTNB-reagent based Ellman's method
Sequence of Acetylcholinesterase (O42275 whole entry): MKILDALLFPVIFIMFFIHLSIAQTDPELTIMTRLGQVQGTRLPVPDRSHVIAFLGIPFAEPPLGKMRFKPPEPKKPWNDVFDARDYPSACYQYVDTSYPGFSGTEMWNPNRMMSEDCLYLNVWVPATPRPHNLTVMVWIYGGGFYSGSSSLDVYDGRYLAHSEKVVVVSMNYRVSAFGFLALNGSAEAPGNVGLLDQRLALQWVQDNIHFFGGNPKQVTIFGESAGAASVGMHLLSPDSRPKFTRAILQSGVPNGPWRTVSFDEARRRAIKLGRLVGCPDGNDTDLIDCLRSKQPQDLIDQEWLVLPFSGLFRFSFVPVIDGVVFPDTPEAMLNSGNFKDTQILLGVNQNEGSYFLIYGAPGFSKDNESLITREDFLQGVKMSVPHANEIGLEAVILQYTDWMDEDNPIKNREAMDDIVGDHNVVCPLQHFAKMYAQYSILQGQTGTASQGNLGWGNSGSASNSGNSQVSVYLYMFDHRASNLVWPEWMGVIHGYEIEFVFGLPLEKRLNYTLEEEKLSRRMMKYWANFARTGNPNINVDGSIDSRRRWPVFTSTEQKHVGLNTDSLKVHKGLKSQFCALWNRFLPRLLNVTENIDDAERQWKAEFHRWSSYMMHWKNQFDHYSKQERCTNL

KB = assay: Cytotoxicity against human KB cells assessed as inhibition of cell growth; format: functional, cell-based

`O[C@H]1CCCC[N+]23C[C@@H]4C=C5CC/C=C\CCCCN6CC[C@@H]4[C@](CC[C@H]12)(C6)[C@H]53` was tested, and the IC50 (L1210) was > 10 µg/mL, the IC50 (Acetylcholinesterase) was 350 µM and the IC50 (KB) was > 10 µg/mL.
`O[C@@H]1CCCC[N+]23C[C@@H]4C=C5CC/C=C\CCCCN6CC[C@@H]4[C@](CC[C@H]12)(C6)[C@H]53` was tested, and the IC50 (L1210) was > 10 µg/mL, the IC50 (Acetylcholinesterase) was 470 µM and the IC50 (KB) was > 10 µg/mL.
